Test results: patent publication US20110313056A1 (BIO SYNTECH CANADA INC., priority 2005, published 2011)

Key:
[1] = Glycerol 2-phosphate titration followed by 31P chemical shift and pH at different temperatures; type: physicochemical
Source text: In order to measure the variation of the polyelectrolyte ionization degree (chitosan in the present case), we performed NMR measurements of the glycerol 2-phosphate (GP) ^31P chemical shift. Glycerol 2-phosphate titration curve at different temperatures allow determination pKa2^GP, δa and δb by fitting pH and δ values of the following equation
where δa and δb are the chemical shifts of ^31P in the monovalent and divalent form of GP, respectively.
This last equation is valid for ideal solutions where the proton activity coefficient is γH+=1.
We dissolve 0.594 g of glycerol 2-phosphate (Sigma, No. Cat. G-9891, 297 g/mol with 4.5 moles H2O per mole of GP) in 18 mL H2Odd and 2 mL D2O (Aldrich, No. Cat. 15,188-2-250G) in a graduate cylinder giving a CGP concentration of 100 mM. A total of 11 solutions (see Table 3) with different ionization degree are prepared from this base solution. The pH is measured with an Accumet meter, model 20 using an electrode 9803BN from Orion.

[2] = Diffusion of GP from chitosan gel into DMEM bath, phosphorus by Kjeldahl digestion; type: physicochemical; conditions: GP concentration in DMEM bath over time vs free diffusion model
Source text: Here we provide evidence that supports the notion that there is no ionic cross-link between the polyelectrolyte and the counter-ion, using gels kept in contact with a bath solution to allow the weak electrolyte (glycerol 2-phosphate in this example) to diffuse out of the gel. […] A simple diffusion model predicted the diffusion profile and allowed the calculation of the diffusion constant in the gel (see section “Diffusion from a gel to a washing solution”) showing an absence of binding with the chitosan gel component.
A 7.5 mL solution (see Table 6) containing chitosan (2.93% w/v Protosan UP CL 213) was placed on ice at 4° C. To this solution, we added 2.25 mL glucosamine (2.16% w/v) drop by drop every 15 seconds followed by 1 mL glycerol 2-phosphate (GP) (33.3% w/v) and 2 mL of hydroxyethyl cellulose. […]
Samples of gel were then taken for analysis of phosphorus content and additional gel samples also taken following three subsequent washes in DMEM for 60 minutes each. Phosphorus was quantified using the established method of Kjeldahl digestion (Liao, N., Total phosphorus in Kjeldahl digests, Milwaukee, Wis.: LACHAT Instruments, 25 p., QuickChem Method 10-115-01-1-C, 1993) followed by the analysis of the absorption at 880 nm of the PO4^3− complex with ammonium molybdate and antimony potassic tartrate.
Concentration cp^m is the measured concentration from the absorption at 880 nm. […]

[3] = literature (Voet and Voet); cited from earlier work

SMILES	pKa2^GP ([1]; 5 ° C.)	pKa2^GP ([1]; 15 ° C.)	pKa2^GP ([1]; 25 ° C.)	pKa2^GP ([1]; 37 ° C.)	binding of GP to the components of the gel [2]	Ka1^P [3]	Ka2^P [3]
O=P(O)(O)OC(CO)CO [GP, glycerol 2-phosphate]	6.13	6.14	6.16	6.16	lack of binding	–	–
O=P(O)(O)O [phosphate, inorganic phosphate]	–	–	–	–	–	approximately 2.2	~6.8
